molecular target: Human FXIa (Homo sapiens (Human), UniProt P03951); assay: Determination of the % inhibition for FXIa; assay type: biochemical; settings: 40 μM test compound, 25° C., substrate Z-Gly-Pro-Arg-AFC
Protocol: Determination of the % inhibition for FXIa
Human FXIa (Enzyme Research Laboratories) was incubated at 25° C. with the fluorogenic substrate Z-Gly-Pro-Arg-AFC and 40 μM of the test compound. Residual enzyme activity (initial rate of reaction) was determined by measuring the change in […].

Chain of Human FXIa (P03951 388-625): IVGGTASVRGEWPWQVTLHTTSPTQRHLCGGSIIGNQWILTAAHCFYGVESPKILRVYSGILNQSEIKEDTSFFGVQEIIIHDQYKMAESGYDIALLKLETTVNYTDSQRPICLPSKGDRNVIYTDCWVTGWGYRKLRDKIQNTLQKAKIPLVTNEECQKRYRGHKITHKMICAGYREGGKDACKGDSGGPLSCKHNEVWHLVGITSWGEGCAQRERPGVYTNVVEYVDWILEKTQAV
Chain of Human FXIa (P03951 19-387 partner): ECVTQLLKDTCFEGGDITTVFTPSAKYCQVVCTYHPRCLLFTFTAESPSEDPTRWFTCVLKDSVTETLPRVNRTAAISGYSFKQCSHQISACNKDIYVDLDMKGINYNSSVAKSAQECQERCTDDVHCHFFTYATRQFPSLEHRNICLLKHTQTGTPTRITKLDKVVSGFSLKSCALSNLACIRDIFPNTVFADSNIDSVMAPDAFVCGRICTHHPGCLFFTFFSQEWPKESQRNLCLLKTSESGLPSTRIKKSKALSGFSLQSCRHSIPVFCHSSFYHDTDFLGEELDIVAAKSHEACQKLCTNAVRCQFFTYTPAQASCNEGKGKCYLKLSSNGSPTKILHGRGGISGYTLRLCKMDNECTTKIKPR

Structure (SMILES)	% Inhibition @ 40 μM (human FXIa) [%]
NC(=O)c1cccc(CNC(=O)c2cn(Cc3ccc(Cn4ccccc4=O)cc3)nc2C2CC2)c1 [Example 49, N-[(3-carbamoylphenyl)methyl]-3-cyclopropyl-1-({4-[(2-oxopyridin-1-yl)methyl]phenyl}methyl)pyrazole-4-carboxamide]	0
COc1cccc(CNC(=O)c2cn(Cc3ccc(Cn4ccccc4=O)cc3)nc2C2CC2)c1F [Example 52, 3-cyclopropyl-N-[(2-fluoro-3-methoxyphenyl)methyl]-1-({4-[(2-oxopyridin-1-yl)methyl]phenyl}methyl)pyrazole-4-carboxamide]	1
Nc1nn(Cc2ccc(Cn3ccccc3=O)cc2)cc1C(=O)NCc1ccc(OC(F)(F)F)cc1 [Example 58, 3-amino-1-({4-[(2-oxopyridin-1-yl)methyl]phenyl}methyl)-N-{[4-(trifluoromethoxy)phenyl]methyl}pyrazole-4-carboxamide]	0

Source: US11198691B2, “N-((het)arylmethyl)-heteroaryl-carboxamides compounds as kallikrein inhibitors” (KalVista Pharmaceuticals Limited, priority 2014, dated 2021)
